Laboratory results: patent publication US8119116B2, “Therapeutics for cancer using 3-bromopyruvate and other selective inhibitors of ATP production” (John Hopkins University School of Medicine, priority 2001, dated 2012)

Experiments:
[1] = tested on: rabbit VX2 tumor mitochondria; experiment: Mitochondrial respiration (oxygen consumption); type: biochemical; details: 1.2 mM
Method: The freshly isolated liver or VX2 tumor tissues (15-20 g wet weight) was rinsed in 3 volumes of H-medium (210 mM D-mannitol, 70 mM sucrose, 2 mM Hepes, and 0.05% bovine albumin, pH 7.4) at 4° C. and minced with a razor blade as finely as possible. A 30% (V/V) suspension was made using ice-cold H-medium in a Potter-Elvehjem glass homogenizer (55 ml capacity), and homogenization was achieved by applying 4 complete up and down strokes through the suspension with a rotating (˜400 rpm), serrated, teflon pestle attached to a motor. To remove cell debris and nuclei, the resultant homogenate was diluted to twice the initial volume and centrifuged at 630×g for 8 minutes at 4° C. in a Sorvall RC-2B centrifuge using a GSA rotor. The supernatant was removed and then centrifuged at 6,800 g for 15 min under the same conditions. The resultant supernatant was saved and referred to here as the cytosolic faction. […]
Oxygen consumption rates were measured polarographically using a Clark oxygen electrode inserted into a 2.5 ml chamber equipped with a magnetic stirrer. […] The loss of oxygen was monitored in a 2.1 ml system at 25° C. containing 1 mg mitochondria, 0.5 mM EDTA, 2.0 mM Hepes, 220 mM D-mannitol, 70 mM sucrose, 2.5 mM KPi, 2.6 mM MgCl2, and 0.5 mg/ml bovine albumin, and, where indicated, 7.8 mM succinate (respiratory substrate), and 0.24 mM ADP (ATP synthesis substrate). […]

[2] = tested on: liver implanted VX2 tumors; experiment: Direct intraarterial injection into liver implanted VX2 tumors, tumor histology; type: in vivo, rabbit; details: single intraarterial injection
Excerpt: The rabbit VX2 tumor was selected for implantation in the liver because of the similarities of its blood supply to that of human hepatomas. Other attributes of this tumor include rapid tumor growth, development of a sizable tumor that can be readily identified by x-ray imaging (fluoroscopy), and a biochemical phenotype characteristic of advanced stage tumors, i.e., high glycolysis and elevated levels of mitochondrial bound hexokinase. In addition, the rabbit is large enough that selective manipulation of catheters in the hepatic artery from the common femoral artery for delivery of agents is possible. Adult New Zealand white rabbits (32 total, Robinson Services, Inc.) weighing 3.5-4.2 kg were used. Studies with these animals were approved by the Johns Hopkins University Animal Care and Use Committee and carried out according to their guidelines. For successful implantation of the VX2 tumor into the liver, it was first grown for 2 weeks on the hind leg of a carrier rabbit. Each carrier rabbit was used to supply tumor cells for implantation into the left lobe of the liver of 2 separate rabbits. All animals, carriers and recipients, were anesthetized with a mixture of acepromazine (2.5 mg/kg) and ketamine hydrochloride (44 mg/kg) administered intramuscularly. Intravenous access was gained via a marginal ear vein and sodium pentothal was given intravenously to maintain anesthesia. The VX2 tumor was then excised from the carrier rabbit and placed in Hanks solution. Chunks of the tumor were minced in the same solution. Then, the abdomens of the recipient rabbits were shaved and prepped with betadine after which a midline subxyphoid incision was made. The anterior surface of the liver was exposed and tumor cells (0.1-0.2 ml) from the minced donor tumor were directly implanted onto the left lobe of the liver using the outer cannula of a 21-gauge angiocatheter. This method allows the growth of a single solitary, well-demarcated tumor in the liver of each recipient rabbit. The abdomen was closed in 2 layers. Proper aseptic technique was rigorously observed during each implantation. After surgery, animals were returned to their cages, kept warm with blankets, and monitored in the animal laboratory under the direct supervision of a physician or a technician until they recovered from anesthesia. […] The tumors were allowed to grow for another 14 days at which time they reached an ellipsoidal shape with dimension of approximately 1.5×1.8×2.5 cm. […]
Administration of anesthesia, intravenous access and sodium pentothal anesthesia were carried out as described in Example 12. […] The tumor could readily be visualized as a region of hypervascular blush located on the left side of the liver near the gastric fundus. […]

O=C(O)C(=O)CBr [3BrPA, 3-bromopyruvic acid]
inhibition of mitochondrial respiration (basal succinate rate and ADP stimulated rate) [1]: completely inhibits | maximal number of non-viable cells observed in any one experiment [2]: 90% | total non-viable cells in the tumor ([2]; 25 ml 0.5 mM, 4 days): 84±5% | viable cells in the tumor ([2]; 25 ml 0.5 mM, 4 days): 16±5% | necrosis in tumor sections outside the central core region ([2]; 4 days): ~100%
